# Activity calls are given as the source filed them.
# Experiments:
# [1] = inhibitors of HIV Env-driven cell fusion, dose response, cherry-pick (AID 652057); type: functional, cell-based
# [2] = CEM21 lymphoblast cell cytotoxicity, dose response, cytotoxicity control for viral fusion inhibitor project, CellTiter-Glo luminescence, cherry-picked (AID 652042); type: functional, cell-based;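 note: potency for signal decrease meaning cytotoxicity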
# INS1 = test: beta cell apoptosis inhibitors, cytokine rescue, dose response, luminescence, retest (AID 449756); type: functional, cell-based; conditions: Rattus norvegicus;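 note: cell death triggered by IL-1 beta plus TNF-alpha plus IFN-gamma mixture; protective hits raise ATP signal compared with cytokine alone wells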
# [3] = HeLa cell cytotoxicity, dose response, cytotoxicity control for MgcRacGAP inhibitor project (AID 624300); type: functional
# [4] = molecular target: T1, Rac GTPase-activating protein 1 (Homo sapiens, UniProt Q9H0H5); test: MgcRacGAP GTPase-activating activity inhibitors, confirmation, biochemical, ADP Hunter fluorescence, primary and confirmatory (AID 624330); type: functional
# T1 sequence (Q9H0H5 whole entry): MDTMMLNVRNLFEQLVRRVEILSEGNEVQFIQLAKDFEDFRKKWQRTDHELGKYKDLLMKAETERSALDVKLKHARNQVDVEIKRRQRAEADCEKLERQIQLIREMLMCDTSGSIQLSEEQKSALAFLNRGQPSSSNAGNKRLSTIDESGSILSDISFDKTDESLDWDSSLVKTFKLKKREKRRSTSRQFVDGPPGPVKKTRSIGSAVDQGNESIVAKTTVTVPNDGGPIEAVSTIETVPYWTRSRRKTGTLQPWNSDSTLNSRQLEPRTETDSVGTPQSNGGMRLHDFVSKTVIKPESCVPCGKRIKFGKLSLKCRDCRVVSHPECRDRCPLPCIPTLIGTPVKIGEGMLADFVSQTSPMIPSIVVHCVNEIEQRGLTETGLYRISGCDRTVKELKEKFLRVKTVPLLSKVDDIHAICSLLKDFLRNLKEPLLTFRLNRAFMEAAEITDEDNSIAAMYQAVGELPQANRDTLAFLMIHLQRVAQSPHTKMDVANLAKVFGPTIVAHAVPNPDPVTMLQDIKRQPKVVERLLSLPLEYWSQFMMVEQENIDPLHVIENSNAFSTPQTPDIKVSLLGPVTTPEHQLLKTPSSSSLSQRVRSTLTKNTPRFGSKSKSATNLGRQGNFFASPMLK
# [5] = system: Streptococcus sp. 'group A'; test: growth inhibition of control SK(-) GAS strain, dose response, counter-screen for streptokinase expression inhibitor project, luminescence, kanamycin, BacTiterGlo, confirmation (AID 1900); type: functional, organism-based
# [6] = A Cell Based Secondary Assay To Explore Cytotoxicity of Compounds that Sensitize Mycobacterium Tuberculosis to Beta-Lactam Antibiotics.; type: functional
# Streptokinase A = molecular target: T2, Streptokinase A (Streptococcus pyogenes serotype M1, UniProt P10520); test: S. pyogenes streptokinase expression inhibitors, potency, dose response, plasminogen activation absorbance, OD405 (AID 1914); type: functional, Streptococcus pyogenes M1 GAS;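 note: secreted streptokinase activity via plasminogen activation per viability signal from cell pellet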
# T2 sequence (P10520 whole entry): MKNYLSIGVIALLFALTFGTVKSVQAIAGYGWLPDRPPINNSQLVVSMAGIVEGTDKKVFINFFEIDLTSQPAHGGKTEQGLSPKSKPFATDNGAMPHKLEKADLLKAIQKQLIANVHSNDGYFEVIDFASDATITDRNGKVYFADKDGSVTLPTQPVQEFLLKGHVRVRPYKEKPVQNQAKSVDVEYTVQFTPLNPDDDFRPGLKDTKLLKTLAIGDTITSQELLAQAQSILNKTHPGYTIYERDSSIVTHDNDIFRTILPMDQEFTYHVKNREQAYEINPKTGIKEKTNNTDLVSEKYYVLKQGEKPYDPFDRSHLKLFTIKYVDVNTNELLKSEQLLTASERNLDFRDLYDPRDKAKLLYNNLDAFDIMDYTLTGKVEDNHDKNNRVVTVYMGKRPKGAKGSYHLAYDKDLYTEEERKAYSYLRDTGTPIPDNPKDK
# Streptococcus = test: Group A Streptococcus viability loss, dose response, counter-screen for streptokinase expression inhibitor project, luminescence, BacTiterGlo (AID 1915); type: functional, organism-based;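 note: potency for reduction of bacterial viability or growth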
# Mu-type opioid receptor = Mu-type opioid receptor (Homo sapiens, UniProt P35372); type: functional, cell-based;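 note: U2OS cells with beta-arrestin recruitment to OPRM1 by beta-gal complementation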
# [7] = molecular target: 5-hydroxytryptamine receptor 2A (Mus musculus, UniProt P35363); type: functional, cell-based;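 note: CHO-K1 cells with tagged receptor and beta-arrestin; agonist potency measured as compound-induced activation of the receptor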
# Large T antigen = Large T antigen (Simian virus 40, UniProt P03070); type: functional, Betapolyomavirus macacae;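 note: Confirmatory-stage PubChem screen for compounds that inhibit SV40 T antigen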
# [8] = molecular target: T3, DNA repair and recombination protein RAD54-like (Homo sapiens, UniProt Q92698); test: inhibitors of human RAD54 branch migration, confirmation, biochemical, fluorescence, cherry-picked samples, dose series (AID 651657); type: functional
# T3 sequence (Q92698 whole entry): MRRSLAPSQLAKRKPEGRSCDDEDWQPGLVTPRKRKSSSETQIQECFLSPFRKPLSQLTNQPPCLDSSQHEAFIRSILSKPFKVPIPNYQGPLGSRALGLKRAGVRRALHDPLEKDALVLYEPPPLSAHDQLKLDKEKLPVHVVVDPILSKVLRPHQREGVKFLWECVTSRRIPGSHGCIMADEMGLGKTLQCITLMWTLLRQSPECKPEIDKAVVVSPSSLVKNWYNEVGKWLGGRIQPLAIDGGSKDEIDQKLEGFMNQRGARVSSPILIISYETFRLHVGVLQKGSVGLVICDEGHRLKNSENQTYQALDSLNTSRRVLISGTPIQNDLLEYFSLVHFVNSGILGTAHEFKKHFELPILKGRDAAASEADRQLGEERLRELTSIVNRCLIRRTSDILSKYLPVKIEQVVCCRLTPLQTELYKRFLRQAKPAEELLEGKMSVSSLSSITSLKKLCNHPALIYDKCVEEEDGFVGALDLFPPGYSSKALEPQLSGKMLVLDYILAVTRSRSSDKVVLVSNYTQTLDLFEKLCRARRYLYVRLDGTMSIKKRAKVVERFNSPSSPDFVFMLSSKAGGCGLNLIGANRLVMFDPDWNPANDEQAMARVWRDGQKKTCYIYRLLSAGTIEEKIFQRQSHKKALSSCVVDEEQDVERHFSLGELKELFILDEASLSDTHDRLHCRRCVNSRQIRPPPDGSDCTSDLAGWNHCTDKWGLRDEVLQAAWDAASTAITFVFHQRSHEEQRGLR
# cells [9] = type: functional, cell-based
# [10] = molecular target: T4, Trace amine-associated receptor 1 (Homo sapiens, UniProt Q96RJ0); test: Fluorescence-based cell-based high throughput dose response assay to identify agonists of the human trace amine associated receptor 1 (TAAR1).; type: functional
# T4 sequence (Q96RJ0 whole entry): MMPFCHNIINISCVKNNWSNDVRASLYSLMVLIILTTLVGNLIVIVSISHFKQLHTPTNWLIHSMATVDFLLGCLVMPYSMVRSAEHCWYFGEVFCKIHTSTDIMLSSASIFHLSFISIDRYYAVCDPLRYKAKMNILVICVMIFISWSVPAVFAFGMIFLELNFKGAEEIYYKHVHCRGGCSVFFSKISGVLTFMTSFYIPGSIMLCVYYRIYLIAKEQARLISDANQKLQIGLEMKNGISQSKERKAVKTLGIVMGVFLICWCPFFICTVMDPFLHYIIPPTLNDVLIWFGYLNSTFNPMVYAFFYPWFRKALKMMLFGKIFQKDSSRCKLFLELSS
# [11] = molecular target: T4, Trace amine-associated receptor 1; test: Counterscreen for agonists of the human trace amine associated receptor 1 (hTAAR1): Fluorescence-based cell-based high throughput dose response assay to identify hTAAR1 agonist that also desensitize TAAR1 receptor response.; type: functional
# cells [12] = type: functional, cell-based; remark: listed apart in the source
# [13] = molecular target: T5, Sentrin-specific protease 1 (Homo sapiens, UniProt Q9P0U3); test: potency of human SENP1 inhibitors, dose response, biochemical, kinetic FRET (AID 651697); type: functional; conditions: read-out: IC50_Mean
# T5 sequence (Q9P0U3 whole entry): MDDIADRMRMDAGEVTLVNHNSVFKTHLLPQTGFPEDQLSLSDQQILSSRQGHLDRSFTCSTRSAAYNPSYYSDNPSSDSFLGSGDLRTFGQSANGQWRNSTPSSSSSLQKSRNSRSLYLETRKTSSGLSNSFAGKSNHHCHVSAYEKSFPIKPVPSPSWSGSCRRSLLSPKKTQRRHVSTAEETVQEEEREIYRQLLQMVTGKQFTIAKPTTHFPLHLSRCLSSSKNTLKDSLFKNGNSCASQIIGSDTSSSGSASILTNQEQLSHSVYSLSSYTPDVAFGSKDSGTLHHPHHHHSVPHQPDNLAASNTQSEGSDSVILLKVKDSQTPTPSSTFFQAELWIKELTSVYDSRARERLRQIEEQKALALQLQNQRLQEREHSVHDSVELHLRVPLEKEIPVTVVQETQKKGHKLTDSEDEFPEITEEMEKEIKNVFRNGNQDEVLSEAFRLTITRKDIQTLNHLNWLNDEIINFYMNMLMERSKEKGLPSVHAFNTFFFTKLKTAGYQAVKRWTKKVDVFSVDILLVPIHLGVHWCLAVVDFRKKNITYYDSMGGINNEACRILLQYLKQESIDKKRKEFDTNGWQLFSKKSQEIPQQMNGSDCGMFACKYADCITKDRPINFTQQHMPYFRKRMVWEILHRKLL
# [14] = molecular target: T5, Sentrin-specific protease 1; test: Dose response confirmation of small molecule inhibitors of the catalytic domain of the SUMO protease, SENP1 in a FRET assay.; type: functional; conditions: read-out: IC50_Mean
# [15] = molecular target: Fructose-bisphosphate aldolase (Mycobacterium tuberculosis, UniProt P9WQA3); test: Fluorescence-based biochemical high throughput dose response assay for inhibitors of the fructose-bisphosphate aldolase (FBA) of M. tuberculosis.; type: functional
# Cysteine protease ATG4B = molecular target: T6, Cysteine protease ATG4B (Homo sapiens, UniProt Q9Y4P1); type: functional;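 note: Fluorescence-based dose-response confirmation assay measuring inhibition of ATG4B activity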
# T6 sequence (Q9Y4P1 whole entry): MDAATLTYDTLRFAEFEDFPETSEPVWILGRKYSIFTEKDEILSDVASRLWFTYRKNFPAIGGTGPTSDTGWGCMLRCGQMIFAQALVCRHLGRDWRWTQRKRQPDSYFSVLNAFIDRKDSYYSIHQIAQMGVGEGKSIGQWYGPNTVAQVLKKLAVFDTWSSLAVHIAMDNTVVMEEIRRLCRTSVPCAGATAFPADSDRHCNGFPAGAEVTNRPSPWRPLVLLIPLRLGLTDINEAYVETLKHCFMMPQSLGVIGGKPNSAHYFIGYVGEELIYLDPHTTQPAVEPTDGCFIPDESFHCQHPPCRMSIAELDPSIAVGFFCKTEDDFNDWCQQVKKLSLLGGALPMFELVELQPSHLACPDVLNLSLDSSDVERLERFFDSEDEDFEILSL
# Phospholipase A2 = Phospholipase A2 (Homo sapiens, UniProt P04054); type: functional;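 note: confirmatory dose-response counterscreen on phospholipase A2, testing hits that came from an ultra-high-throughput screen for ATG4B inhibitors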
# Cytochrome P450 1A2 = molecular target: T7, Cytochrome P450 1A2 (Homo sapiens, UniProt P05177);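 note: PubChem cytochrome P450 panel assay, CYP1A2 panel member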
# T7 sequence (P05177 whole entry): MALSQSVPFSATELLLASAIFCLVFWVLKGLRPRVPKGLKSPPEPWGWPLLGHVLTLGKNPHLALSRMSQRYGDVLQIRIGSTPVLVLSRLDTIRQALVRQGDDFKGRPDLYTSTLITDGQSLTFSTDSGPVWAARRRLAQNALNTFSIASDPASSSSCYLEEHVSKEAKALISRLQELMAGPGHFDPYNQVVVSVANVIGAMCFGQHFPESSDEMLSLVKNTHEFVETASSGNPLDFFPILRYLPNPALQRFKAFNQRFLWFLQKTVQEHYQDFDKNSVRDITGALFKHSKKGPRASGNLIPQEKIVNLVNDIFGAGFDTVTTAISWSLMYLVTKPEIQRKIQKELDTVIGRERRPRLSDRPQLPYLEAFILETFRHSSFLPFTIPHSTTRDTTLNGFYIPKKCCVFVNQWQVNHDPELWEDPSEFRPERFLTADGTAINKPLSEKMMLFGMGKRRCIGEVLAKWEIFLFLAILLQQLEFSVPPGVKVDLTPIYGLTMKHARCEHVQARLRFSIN
# [16] = ZM109 Env clade C HIV-1 fusion inhibitors, dose response, HeLa effector, CEM target cells, luciferase, cherry-pick (AID 652058); type: functional, cell-based
# [17] = inhibitors of clade B AD8 Env fusion, dose response, cell-based, cherry-pick (AID 652062); type: functional;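 note: luciferase signal from cell-cell fusion driven by HIV-1 clade B AD8 Env; potency is for inhibitors of fusion seen as a drop in luminescence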
# Sequence of Mu-type opioid receptor (P35372 whole entry): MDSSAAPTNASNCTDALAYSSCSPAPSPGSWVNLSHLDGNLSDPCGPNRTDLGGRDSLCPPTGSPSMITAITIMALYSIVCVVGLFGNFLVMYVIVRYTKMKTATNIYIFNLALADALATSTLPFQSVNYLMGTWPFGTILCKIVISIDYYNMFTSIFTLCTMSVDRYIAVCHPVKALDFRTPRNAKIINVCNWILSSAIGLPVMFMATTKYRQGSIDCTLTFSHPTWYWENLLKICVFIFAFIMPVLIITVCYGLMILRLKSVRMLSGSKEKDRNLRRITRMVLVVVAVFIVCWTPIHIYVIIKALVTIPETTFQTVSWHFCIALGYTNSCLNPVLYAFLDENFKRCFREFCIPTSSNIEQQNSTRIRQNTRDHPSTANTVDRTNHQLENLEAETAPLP
# Sequence of Fructose-bisphosphate aldolase (P9WQA3 whole entry): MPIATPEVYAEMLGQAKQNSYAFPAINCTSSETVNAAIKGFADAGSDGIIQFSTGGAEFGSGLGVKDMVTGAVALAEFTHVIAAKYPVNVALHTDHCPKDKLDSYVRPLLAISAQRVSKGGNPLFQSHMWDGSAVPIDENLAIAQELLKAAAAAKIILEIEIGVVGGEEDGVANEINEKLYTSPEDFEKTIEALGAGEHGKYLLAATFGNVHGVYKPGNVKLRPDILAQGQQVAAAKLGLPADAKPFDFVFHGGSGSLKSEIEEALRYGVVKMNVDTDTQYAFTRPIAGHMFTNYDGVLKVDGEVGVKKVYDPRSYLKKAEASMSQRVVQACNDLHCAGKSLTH
# Sequence of 5-hydroxytryptamine receptor 2A (P35363 whole entry): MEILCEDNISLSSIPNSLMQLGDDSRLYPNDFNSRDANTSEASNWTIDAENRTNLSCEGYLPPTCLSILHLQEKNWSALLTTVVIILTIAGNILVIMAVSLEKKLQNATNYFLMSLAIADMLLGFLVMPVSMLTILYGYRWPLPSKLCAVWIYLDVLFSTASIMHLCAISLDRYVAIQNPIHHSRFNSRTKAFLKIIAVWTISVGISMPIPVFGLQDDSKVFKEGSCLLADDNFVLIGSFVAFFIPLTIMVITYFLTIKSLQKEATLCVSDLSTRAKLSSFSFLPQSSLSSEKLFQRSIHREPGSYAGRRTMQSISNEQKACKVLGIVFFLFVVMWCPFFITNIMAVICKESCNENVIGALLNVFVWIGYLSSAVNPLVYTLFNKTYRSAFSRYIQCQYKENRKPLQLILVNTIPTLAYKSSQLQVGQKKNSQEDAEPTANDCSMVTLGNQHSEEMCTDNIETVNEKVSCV
# Sequence of Large T antigen (P03070 whole entry): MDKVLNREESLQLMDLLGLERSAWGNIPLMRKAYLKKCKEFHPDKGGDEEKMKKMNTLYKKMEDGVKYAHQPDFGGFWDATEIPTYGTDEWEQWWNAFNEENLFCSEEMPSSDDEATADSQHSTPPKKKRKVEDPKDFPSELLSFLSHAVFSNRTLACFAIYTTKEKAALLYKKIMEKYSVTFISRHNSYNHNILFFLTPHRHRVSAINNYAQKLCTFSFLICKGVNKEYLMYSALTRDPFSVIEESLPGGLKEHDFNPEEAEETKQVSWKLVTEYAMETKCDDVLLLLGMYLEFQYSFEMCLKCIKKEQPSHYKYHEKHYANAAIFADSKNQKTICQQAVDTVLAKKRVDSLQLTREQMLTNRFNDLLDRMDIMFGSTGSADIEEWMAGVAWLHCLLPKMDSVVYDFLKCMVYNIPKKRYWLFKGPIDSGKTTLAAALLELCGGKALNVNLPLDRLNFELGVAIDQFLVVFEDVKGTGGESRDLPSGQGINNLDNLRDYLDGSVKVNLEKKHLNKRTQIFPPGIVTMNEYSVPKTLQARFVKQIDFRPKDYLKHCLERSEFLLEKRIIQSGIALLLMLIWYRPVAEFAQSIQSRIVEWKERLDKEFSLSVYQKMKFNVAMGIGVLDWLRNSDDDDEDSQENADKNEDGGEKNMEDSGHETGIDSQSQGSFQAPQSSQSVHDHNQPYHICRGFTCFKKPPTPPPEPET
# Sequence of Phospholipase A2 (P04054 whole entry): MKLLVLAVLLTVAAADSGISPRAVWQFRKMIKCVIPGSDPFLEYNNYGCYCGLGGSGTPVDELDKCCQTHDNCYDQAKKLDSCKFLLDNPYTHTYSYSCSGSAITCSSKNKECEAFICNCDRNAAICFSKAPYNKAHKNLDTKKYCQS
smiles,measurement,setting,value
CCc1nc(N2CCCCC2)c2oc3ccccc3c2n1,AC50,[1],30.8 µM (active)
same,AC50,[2],41.8 µM (active)
Cc1ccc2c(c1)[nH]c1c(N3CCN(Cc4ccccc4)CC3)ncnc12,AC50,INS1,3.89 µM (active)
same,CC50,[3],57.9 µM (active)
same,IC50,[4],47.8 µM (active)
COc1ccc2oc(C(=O)Nc3nc4ccccc4[nH]3)c(C)c2c1,EC50,[5],2.61 µM (active)
same,CC50,[6],> 40 µM (active)
same,EC50,Streptokinase A,> 150 µM (not active)
same,EC50,Streptococcus,12 µM (active)
same,EC50,Mu-type opioid receptor,92.5 µM (inactive)
same,EC50,[7],76.1 µM (inactive)
OCCNc1nc(Nc2ccc(O)cc2)nc2ccccc12,IC50,Large T antigen,4.5 µM (active)
same,AC50,[8],38.6 µM (active)
same,IC50,cells [9],> 29.9 µM (inactive)
same,EC50,[10],0.578 µM (active)
same,IC50,[11],1.64 µM (active)
same,EC50,cells [12],> 29.9 µM (inactive)
Cc1ccc2n(n1)c(=O)c(Cc1ccccc1)c([O-])[n+]2-c1ccccc1,IC50,[13],16.8 µM (active)
same,IC50,[14],12.7 µM (active)
N#CCCN(C(=O)COc1ccc(F)cc1Br)c1ccccc1F,IC50,[15],> 9.99 µM (inactive)
CCO[C@@H]1c2c(ccc3ccc(=O)oc23)OC(C)(C)[C@H]1O,IC50,[15],> 1.11 µM (active)
CC(C)c1ccc2nc3sc(C(=O)N4CCc5ccccc5C4)c(N)c3cc2c1,EC50,[5],25.6 µM (active)
same,EC50,Streptokinase A,101 µM (active)
same,EC50,Streptococcus,> 150 µM (not active)
same,IC50,Cysteine protease ATG4B,7.08 µM (active)
same,IC50,Phospholipase A2,4.83 µM (active)
same,IC50,[13],2.58 µM (active)
same,IC50,[14],5.22 µM (active)
same,AC50,Cytochrome P450 1A2,11.2 µM (inconclusive)
Cn1c2c(c3ccccc31)CCN(CCCCN1CCN(c3ccccc3)CC1)C2=O,EC50,Mu-type opioid receptor,92.4 µM (inactive)
same,EC50,[7],0.0455 µM (active)
COc1ccc2c3c([nH]c2c1)[C@@H](CO)N(C(=O)Nc1cccc(F)c1)CC31CN(S(=O)(=O)c2cccc(C)c2)C1,AC50,[1],22.7 µM (active)
same,AC50,[2],23.1 µM (active)
same,AC50,[16],14.9 µM (active)
same,AC50,[17],24.2 µM (active)
CCOc1ccc(C/C(=N/CCc2ccccc2)C2=C(O)CC(C)(C)CC2=O)cc1OCC,IC50,cells [9],> 29.9 µM (inactive)
same,EC50,[10],0.358 µM (active)
same,IC50,[11],2.84 µM (active)
same,EC50,cells [12],> 29.9 µM (inactive)

# — ChEMBL document CHEMBL1201862, “PubChem BioAssay data set” (2004)
